Experimental data: patent US5683989A, “Treatment of ischemias by administration of 2,N^6 -substituted adenosines” (Novo Nordisk A/S, priority 1995, dated 1997)

What was measured:
[1] = tested on: A1 receptor; conditions: literature, in words; cited from earlier work
[2] = molecular target: T1, adenosine A1 receptor (Rattus norvegicus, UniProt P25099); assay: In vitro binding to adenosine A1 receptor, radioligand [^3 H]-(R)-PIA; conditions: single determinations only; for Ki: [^3 H]-(R)-PIA radioligand; for Ratio A2 /A1: ratio of A2 Ki to A1 Ki
T1 construct: from tissue
T1 sequence (P25099 1-326): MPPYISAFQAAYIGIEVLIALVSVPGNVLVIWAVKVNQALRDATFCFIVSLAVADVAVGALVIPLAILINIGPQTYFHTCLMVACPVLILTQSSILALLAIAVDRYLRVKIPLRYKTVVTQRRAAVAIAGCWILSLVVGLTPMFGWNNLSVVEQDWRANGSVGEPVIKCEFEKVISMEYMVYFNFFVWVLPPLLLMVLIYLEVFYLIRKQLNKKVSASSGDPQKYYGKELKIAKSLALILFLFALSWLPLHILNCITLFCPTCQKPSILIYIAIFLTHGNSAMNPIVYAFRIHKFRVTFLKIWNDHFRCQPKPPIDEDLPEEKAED
Text: (§1) Evaluation of in vitro binding to adenosine A1 and A2 receptors
(§2) The methods used are described fully in European Journal of Pharmacology, 1993, 242, 221-228.

[3] = molecular target: T2, A2 receptor (Rattus norvegicus, UniProt P30543); assay: In vitro binding to adenosine A2 receptor, radioligand [^3 H]-CGS 21680; conditions: [^3 H]-CGS 21680 radioligand; single determinations only
T2 construct: from tissue
T2 sequence (P30543 whole entry): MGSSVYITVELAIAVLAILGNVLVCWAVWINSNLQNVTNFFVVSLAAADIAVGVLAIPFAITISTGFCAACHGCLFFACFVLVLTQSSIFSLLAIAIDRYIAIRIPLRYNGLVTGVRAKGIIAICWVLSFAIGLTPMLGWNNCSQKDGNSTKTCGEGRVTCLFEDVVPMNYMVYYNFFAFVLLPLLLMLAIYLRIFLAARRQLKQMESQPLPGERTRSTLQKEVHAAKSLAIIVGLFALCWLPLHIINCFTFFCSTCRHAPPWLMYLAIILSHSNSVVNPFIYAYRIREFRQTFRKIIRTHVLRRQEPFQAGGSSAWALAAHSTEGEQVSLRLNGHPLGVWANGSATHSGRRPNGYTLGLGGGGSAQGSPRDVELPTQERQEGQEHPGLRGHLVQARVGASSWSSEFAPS
Text: as §1, §2

| SMILES | selectivity for the A1 receptor over the A2 receptor [1] | Ki [2] [nM] | Ratio A2 /A1 [2] | Ki [3] [nM] |
| --- | --- | --- | --- | --- |
| OC[C@H]1O[C@@H](n2cnc3c(NC4CCCC4)nc(Cl)nc32)[C@H](O)[C@@H]1O [CCPA, 2-chloro-N-cyclopentyladenosine] | most selective for the A1 receptor over the A2 receptor | – | – | – |
| Cc1nnc(SC[C@@H](C)Nc2nc(Cl)nc3c2ncn3[C@@H]2O[C@H](CO)[C@@H](O)[C@H]2O)s1 [Example 3, 2-Chloro-N-{(R)-1-[5-methyl-(1,3,4-thiadiazol-2-yl)]thio-2-propyl}adenosine] | – | 9 | 110 | 990 |
| C[C@H](CSc1nc2ccccc2s1)Nc1nc(F)nc2c1ncn2[C@@H]1O[C@H](CO)[C@@H](O)[C@H]1O [Example 13, N-[(R)-1-(2-Benzothiazolyl)thio-2-propyl]-2-fluoroadenosine] | – | 3.4 | 756 | 2570 |
| CC[C@H](CSc1nc2ccccc2s1)Nc1nc(Cl)nc2c1ncn2[C@@H]1O[C@H](CO)[C@@H](O)[C@H]1O [Example 15, N-[(R)-1-(2-Benzothiazolyl)thio-2-butyl]-2-chloroadenosine] | – | 7 | 136 | 950 |
| C[C@H](CSc1nc2cc(Cl)ccc2s1)Nc1nc(Cl)nc2c1ncn2[C@@H]1O[C@H](CO)[C@@H](O)[C@H]1O [Example 22, 2-Chloro-N-[(R)-1-(5-chloro-2-benzothiazolyl)thio-2-propyl]adenosine] | – | 10 | 100 | 1000 |
| C[C@H](CSc1cccs1)Nc1nc(Cl)nc2c1ncn2[C@@H]1O[C@H](CO)[C@@H](O)[C@H]1O [Example 23, 2-Chloro-N-[(R)-1-(2-thienyl)thio-2-propyl]adenosine] | – | 4.5 | 38 | 170 |
| C[C@H](CSc1n[nH]c(-c2ccccc2)n1)Nc1nc(Cl)nc2c1ncn2[C@@H]1O[C@H](CO)[C@@H](O)[C@H]1O [Example 27, 2-Chloro-N-{(R)-1-[5-phenyl-(1,2,4-triazol-3-yl)]thio-2-propyl}adenosine] | – | 14 | 355 | 4970 |
